Experiments:
xanthine oxidase = xanthine oxidase (Bos taurus (Bovine), UniProt P80457); assay: Amplex Red xanthine oxidase (XO) assay; type: biochemical; set-up: key: The sign “—” stands for “inactive”
Procedure: (§1) Reactive oxygen produced in whole cells or in membrane preparation of Nox1, Nox3, Nox4, Nox5 and xanthine oxidase and glucose oxidase were determined using Amplex Red as detection probe of formed H2O2. Amplex Red (10-acetyl-3,7-dihydroxyphenoxazine) in combination with HRP and co-factors reacts with H2O2 in a 1:1 stoichiometry to form a highly fluorescent resorufin excitated at 544 nm producing emission at 590 nm.
The assay was designed for Amplex Red analysis of production of hydrogen peroxide. Test compounds were incubated with 5 mU/ml bovine derived xanthine oxidase for 15 min at room temperature followed by the addition of substrate and detection mix (final concentrations of 0.2 U/ml HRP, 5 μM hypoxanthine, and 50 μM Amplex Red). As described by Hirano K et al., Antioxid Redox Signal 2015 10; 23:358-374, production of hydrogen peroxide was followed by fluorescence detection during 30 min at 37° C. in a plate reader that use excitation at 544 nm producing emission at 590 nm.

Nox1 = Nox1 (Homo sapiens (Human), UniProt Q9Y5S8); assay: Amplex Red assay of Nox1 expressing CHO cells; type: cell-based; set-up: key to IC50 Nox1: The sign “—” stands for “inactive”
Sequence of Nox1 (Q9Y5S8 whole entry): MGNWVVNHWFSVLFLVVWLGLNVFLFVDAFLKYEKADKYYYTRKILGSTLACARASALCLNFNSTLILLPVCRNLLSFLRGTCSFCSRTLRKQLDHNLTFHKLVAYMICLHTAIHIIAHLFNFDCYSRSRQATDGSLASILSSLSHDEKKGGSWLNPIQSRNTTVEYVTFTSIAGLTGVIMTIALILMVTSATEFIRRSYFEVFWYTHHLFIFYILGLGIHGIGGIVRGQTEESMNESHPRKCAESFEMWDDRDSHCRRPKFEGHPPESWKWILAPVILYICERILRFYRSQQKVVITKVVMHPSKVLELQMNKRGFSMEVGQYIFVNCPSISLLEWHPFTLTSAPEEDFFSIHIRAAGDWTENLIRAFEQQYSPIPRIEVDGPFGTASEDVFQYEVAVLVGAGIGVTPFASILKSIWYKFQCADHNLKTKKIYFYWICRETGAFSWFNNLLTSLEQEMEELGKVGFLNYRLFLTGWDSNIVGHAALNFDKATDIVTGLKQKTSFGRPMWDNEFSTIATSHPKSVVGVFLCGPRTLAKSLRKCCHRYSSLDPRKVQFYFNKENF
Sequence of Nox1 (P13498 2-195 partner): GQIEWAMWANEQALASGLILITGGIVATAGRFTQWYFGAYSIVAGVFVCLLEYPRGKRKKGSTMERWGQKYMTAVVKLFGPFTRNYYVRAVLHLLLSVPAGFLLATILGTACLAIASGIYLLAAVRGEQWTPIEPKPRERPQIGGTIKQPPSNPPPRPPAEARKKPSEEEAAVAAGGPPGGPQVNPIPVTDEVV
Procedure: (§2) HEK293 overexpressing Nox4 (CJ Nox4) cells were purchased from Redoxis, Lund, Sweden. HEK 293 cells expressing Nox5, Nox3 (HEK TRex) and CHO cells expressing Nox1, were a kind gift from Vincent Jaque Center Medical Universitaire, Geneva, Switzerland. Nox2 expressed in isolated neutrophils were isolated from whole blood (human), as previously described (Anvari E, et al., Free Radic Res 2015; 49:1308-1318).
CHO cells expressing Nox1 were cultured in DMEM 12 medium (DMEM/F12) supplemented with FBS (10%), penicillin (100 U/ml) and streptomycin (100 μg/ml) at 37° C. in air with 5% CO2.
as §1
(§3) Adherent cells (CHO, HEK) were collected by trypsinization, centrifuged, washed with HBSS, counted, and resuspended in HBSS. Cells were seeded in 96-well black flat bottom plates at a density of 50,000-100,000 cells/well. All compounds were dissolved in DMSO and concentrations ranging from 0.003 to 200 μM were tested in Nox cellular assays with a final concentration of DMSO of 1%. Cells were incubated at 37° C. with the compounds for 30 minutes before measurement. Cells expressing Nox1 and Nox2 were activated with the PKC activator PMA (0.1 μM). Nox5 was activated with the Ca2+ ionophore ionomycin (1 μM) and further enforced with PMA. The CJ HEK 293 cells overexpressed Nox4 constitutively. In the HTS screen HEK 293 TRex was used and tetracycline ([…]) was added 18 h before measurement to induce Nox4 expression. Production of hydrogen peroxide by Nox in intact cells was measured using Amplex Red fluorescence as described by Jaquet V, et al., Br J Pharmacol 2011; 164:507-520. Assay reagents including HRP ([…]) and Amplex Red (50 μM) were added to initiate production of hydrogen peroxide. Fluorescence was read in a fluorescence plate reader at 37° C. every minute between 30-60 minutes.

Nox2 = Nox2 (Homo sapiens (Human), UniProt P04839); assay: Nox2 inhibition in human neutrophils, isoluminol-dependent chemiluminescence; type: cell-based; set-up: key to IC50 Nox2: The sign “—” stands for “inactive”; conditions: PMA stimulated human neutrophils
Sequence of Nox2 (P04839 2-570): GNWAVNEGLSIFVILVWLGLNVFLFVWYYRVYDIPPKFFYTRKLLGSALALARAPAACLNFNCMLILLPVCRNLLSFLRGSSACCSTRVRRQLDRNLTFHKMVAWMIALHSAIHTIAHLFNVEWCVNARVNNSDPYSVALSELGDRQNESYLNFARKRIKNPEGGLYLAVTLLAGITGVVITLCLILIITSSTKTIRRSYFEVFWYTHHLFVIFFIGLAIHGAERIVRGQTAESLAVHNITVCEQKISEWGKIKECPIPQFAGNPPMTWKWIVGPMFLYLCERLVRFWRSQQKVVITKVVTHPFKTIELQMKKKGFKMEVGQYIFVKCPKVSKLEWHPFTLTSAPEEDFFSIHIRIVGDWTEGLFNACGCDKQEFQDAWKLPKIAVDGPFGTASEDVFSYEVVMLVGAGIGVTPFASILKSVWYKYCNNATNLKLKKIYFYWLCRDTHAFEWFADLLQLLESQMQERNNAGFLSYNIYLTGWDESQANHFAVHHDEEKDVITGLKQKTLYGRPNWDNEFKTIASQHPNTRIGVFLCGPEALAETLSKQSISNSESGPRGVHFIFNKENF
Sequence of Nox2 (P13498 2-195 partner): as the sequence (P13498 2-195 partner) above
Procedure: as §2
Compounds of the invention were tested for selectivity against Nox2 in isolated neutrophils from whole blood (human), as previously described (Anvari E, et al., vide supra). Levels of ROS from PMA stimulated primary human neutrophils were measured using isoluminol-dependent chemiluminescence. […] The dye is excited by ROS and the light emitted when the excited molecules return to the ground state, relative to the amount of released ROS, is measured. This reaction is catalyzed and amplified by peroxidases. […] Compounds of the invention and GKT136901 were diluted at 4× working concentration and titrated from 100 μM to 0.006 μM in 1:4 steps as final concentrations. DPI was diluted in isoluminol buffer at 4× working concentration titrated from 10 μM to 0.0006 μM as final concentrations. PMA was diluted in isoluminol buffer at 4× working concentration for a final concentration of 30 ng/ml. […] Luminescence was detected using FluoStar Optima (BMG, Labtech). The isoluminol buffer was prepared immediately prior to addition to test plate. The buffer contained HRP fraction with or without PMA (30 ng/ml). Stock solutions at 6 μg/ml (PMA in HBSS), 3 μg/ml (PMA in DMSO) and 24 mM (DPI) were used and further diluted at the day of analysis to 4× working concentrations in HBSS with or without DMSO.

Nox5 = Nox5 (Homo sapiens (Human), UniProt Q96PH1); assay: Amplex Red assay of Nox5 expressing HEK cells; type: cell-based; set-up: key: The sign “—” stands for “inactive”
Sequence of Nox5 (Q96PH1 whole entry): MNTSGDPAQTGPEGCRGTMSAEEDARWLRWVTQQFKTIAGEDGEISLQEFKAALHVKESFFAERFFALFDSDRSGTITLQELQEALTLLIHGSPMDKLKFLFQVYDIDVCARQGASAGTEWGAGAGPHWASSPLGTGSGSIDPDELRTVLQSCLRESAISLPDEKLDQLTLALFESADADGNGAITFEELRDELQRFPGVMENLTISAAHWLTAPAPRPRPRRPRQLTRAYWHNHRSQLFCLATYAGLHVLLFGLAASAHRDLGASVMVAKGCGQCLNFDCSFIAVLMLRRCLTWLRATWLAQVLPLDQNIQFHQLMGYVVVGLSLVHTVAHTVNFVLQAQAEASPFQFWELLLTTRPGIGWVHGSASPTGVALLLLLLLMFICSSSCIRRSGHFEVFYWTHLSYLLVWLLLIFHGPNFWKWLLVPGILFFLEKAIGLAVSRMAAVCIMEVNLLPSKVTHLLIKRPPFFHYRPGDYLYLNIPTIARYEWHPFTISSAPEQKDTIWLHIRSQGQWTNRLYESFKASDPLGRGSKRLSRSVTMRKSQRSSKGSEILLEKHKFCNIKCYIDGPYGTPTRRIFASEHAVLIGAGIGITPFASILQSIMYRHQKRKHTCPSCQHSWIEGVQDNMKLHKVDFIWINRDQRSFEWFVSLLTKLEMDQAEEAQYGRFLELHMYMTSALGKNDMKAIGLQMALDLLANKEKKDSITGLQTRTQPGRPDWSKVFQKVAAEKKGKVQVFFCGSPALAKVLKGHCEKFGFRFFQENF
Source text: as §2
HEK293T cells expressing tetracycline-inducible human (Nox3 or Nox4) and HEK293 cells stably expressing human Nox5 were generated as described previously (Serrander et al., 2007a,b). HEK cells were cultured in Dulbecco's modified Eagle medium (DMEM) with 4.5 g/l glucose, supplemented with FBS (10%), penicillin (100 U/ml) and streptomycin […] at 37° C. in air with 5% CO2.
as §1, §3

hNox4 = hNox4 (Homo sapiens (Human), UniProt Q9NPH5); assay: Amplex Red assay of intact Nox4 expressing HEK293 cells; type: cell-based; conditions: read-out: IC50 Nox4
Sequence of hNox4 (Q9NPH5 whole entry): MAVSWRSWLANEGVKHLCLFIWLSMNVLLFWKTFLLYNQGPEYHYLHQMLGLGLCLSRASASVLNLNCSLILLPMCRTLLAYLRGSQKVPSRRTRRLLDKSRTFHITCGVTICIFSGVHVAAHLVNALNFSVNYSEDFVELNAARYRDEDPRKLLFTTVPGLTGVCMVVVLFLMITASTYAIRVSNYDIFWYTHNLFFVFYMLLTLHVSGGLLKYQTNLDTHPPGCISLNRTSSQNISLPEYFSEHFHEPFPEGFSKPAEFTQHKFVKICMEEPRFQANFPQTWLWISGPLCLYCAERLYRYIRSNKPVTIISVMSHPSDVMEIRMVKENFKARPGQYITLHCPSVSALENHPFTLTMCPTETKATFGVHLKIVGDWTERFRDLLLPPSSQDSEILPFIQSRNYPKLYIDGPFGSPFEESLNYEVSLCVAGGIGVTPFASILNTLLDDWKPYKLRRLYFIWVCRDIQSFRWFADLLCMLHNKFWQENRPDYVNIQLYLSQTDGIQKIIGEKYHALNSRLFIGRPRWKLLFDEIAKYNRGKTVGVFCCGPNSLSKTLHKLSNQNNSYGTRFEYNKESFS
Sequence of hNox4 (P13498 2-195 partner): as the sequence (P13498 2-195 partner) above
Procedure: as §2
HEK293 cells (CJ Nox4) were cultured in RPMI 1640 with Glutamax supplemented with FBS (10%), penicillin (100 U/ml) and streptomycin […] at 37° C. in air with 5% CO2. Every third passage 200 µg/ml neomycin were supplied in growth medium as selective agent.
as §1, §3

Human islet cells = assay: Effects on human islet cell viability; type: cell-based; conditions: 48 h, inhibitor 2 μM; for human islet cell death with cytokines: IL-1β (20 ng/ml)+IFN-γ (20 ng/ml); for human islet cell death with high glucose+palmitate: palmitate (1.5 mM)+high glucose (20 mM)
Procedure: Human islet cells were incubated at control condition, with the cytokines IL-1β (20 ng/ml)+IFN-γ (20 ng/ml), or with palmitate (1.5 mM+2% BSA)+high glucose (20 mM) (PH) for 2 days with or without Nox1 inhibitor ML-171 (2 μM), Nox2 inhibitor Phos-I2 (2 μM) or Example 17 (1 μM). Islets were photographed in an inverted fluorescence microscope and the intensities of red (PI) and blue (Bisbenzimide) signals were quantified using Image J software. Results are indicated as mean±S.E.M for 7 human islet donors.

DPPH redox assay = assay: DPPH redox assay; set-up: key: The sign “—” stands for “inactive”; conditions: redox activity control
Procedure: DPPH, a well-known sensitive chemical of monitoring reactions involving radicals described by Xiong Q, et al., Biol Pharm Bull 1996; 19:1580-1585, was used as control to exclude any redox active compound. DPPH was incubated with decreasing concentrations (200-0.003 μM) of compounds of the invention or prior art compound GKT136901 (as a positive control). The plate was kept in the dark for 60 min, after which the absorbance of the solution was measured at 518 nm.

Sequence of xanthine oxidase (P80457 whole entry): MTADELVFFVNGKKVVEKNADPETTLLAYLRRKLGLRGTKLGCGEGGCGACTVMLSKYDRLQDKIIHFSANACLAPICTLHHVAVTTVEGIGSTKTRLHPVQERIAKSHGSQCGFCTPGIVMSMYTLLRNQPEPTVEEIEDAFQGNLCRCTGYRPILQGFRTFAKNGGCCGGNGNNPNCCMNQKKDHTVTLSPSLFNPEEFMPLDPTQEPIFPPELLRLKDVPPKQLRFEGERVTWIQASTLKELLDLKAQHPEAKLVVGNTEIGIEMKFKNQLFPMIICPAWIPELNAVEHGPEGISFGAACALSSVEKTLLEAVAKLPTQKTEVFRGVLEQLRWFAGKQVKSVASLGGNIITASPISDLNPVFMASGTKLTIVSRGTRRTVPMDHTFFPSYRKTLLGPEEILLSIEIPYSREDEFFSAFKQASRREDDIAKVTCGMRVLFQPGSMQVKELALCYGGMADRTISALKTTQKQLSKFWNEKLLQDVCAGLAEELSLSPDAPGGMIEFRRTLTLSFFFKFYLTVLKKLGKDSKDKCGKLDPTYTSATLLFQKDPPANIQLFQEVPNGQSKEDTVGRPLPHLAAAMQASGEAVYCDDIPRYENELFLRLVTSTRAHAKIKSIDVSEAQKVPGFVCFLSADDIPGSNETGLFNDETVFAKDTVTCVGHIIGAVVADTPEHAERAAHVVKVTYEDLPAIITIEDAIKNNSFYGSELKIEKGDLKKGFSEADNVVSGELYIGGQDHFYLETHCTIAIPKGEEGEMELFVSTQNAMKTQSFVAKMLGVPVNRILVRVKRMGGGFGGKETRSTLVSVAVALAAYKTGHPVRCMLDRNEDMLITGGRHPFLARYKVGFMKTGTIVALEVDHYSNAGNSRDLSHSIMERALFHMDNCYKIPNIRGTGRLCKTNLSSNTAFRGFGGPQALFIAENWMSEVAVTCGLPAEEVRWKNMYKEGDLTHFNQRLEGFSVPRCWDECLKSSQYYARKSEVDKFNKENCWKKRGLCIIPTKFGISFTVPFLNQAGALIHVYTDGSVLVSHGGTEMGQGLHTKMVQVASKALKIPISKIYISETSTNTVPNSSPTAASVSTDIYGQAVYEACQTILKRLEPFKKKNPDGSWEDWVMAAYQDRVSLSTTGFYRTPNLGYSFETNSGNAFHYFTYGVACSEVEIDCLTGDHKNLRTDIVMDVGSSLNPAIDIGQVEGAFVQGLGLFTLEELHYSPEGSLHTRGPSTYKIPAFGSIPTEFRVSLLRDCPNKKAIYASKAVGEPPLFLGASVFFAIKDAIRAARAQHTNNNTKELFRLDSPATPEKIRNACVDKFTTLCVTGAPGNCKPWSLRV

Structure (SMILES)	IC50 XO (xanthine oxidase)	IC50 Nox1 (Nox1)	IC50 Nox2 (Nox2)	IC50 Nox5 (Nox5)	IC50 (hNox4)	human islet cell death with cytokines (Human islet cells)	human islet cell death with high glucose+palmitate (Human islet cells)	IC50 DPPH (DPPH redox assay)	IC50 (Nox1)	IC50 (Nox2)
Cc1cc(C)c(S(=O)(=O)NCCc2ccccc2Br)c(C)c1 [Example 7, N-[2-(2-bromophenyl)ethyl]-2,4,6-trimethylbenzene-1-sulfonamide]	—	—	—	—	270 nM					
O=[N+]([O-])c1cccc(C2Nc3ccc([N+](=O)[O-])cc3C3C=CCC32)c1 (stereo not shown) [Phox-I2]						failed to protect human islets against cytokines	partially protected against high glucose+palmitate			
Cc1ccccc1C(F)CNS(=O)(=O)c1c(Cl)cc(Br)cc1Cl (single isomer, unassigned) [Example 35 (isomer 2), 4-bromo-2,6-dichloro-N-[2-fluoro-2-(2-methylphenyl)ethyl]benzene-1-sulfonamide]	—	—	—	—	4900 nM			—		
O=S(=O)(NCCc1ccccc1F)c1c(Cl)cc(C2CC2)cc1Cl [Example 25, 2,6-dichloro-4-cyclopropyl-N-[2-(2-fluorophenyl)ethyl]benzene-1-sulfonamide]	—	—		—	1100 nM			—		
O=S(=O)(NCCc1ccccc1Cl)c1c(Cl)cc(C(F)(F)F)cc1Cl [Example 27, 2,6-dichloro-N-[2-(2-chlorophenyl)ethyl]-4-(trifluoromethyl)benzene-1-sulfonamide]	—	—		—	1600 nM			—		
Cc1cc(C)c(S(=O)(=O)NCCc2ccccc2Cl)c(C)c1 [Example 6, N-[2-(2-chlorophenyl)ethyl]-2,4,6-trimethylbenzene-1-sulfonamide]	—	—	—	—	270 nM			—		
O=S(=O)(NCCc1ccccc1Cl)c1c(Cl)cc(Br)cc1Cl [Example 20, 4-bromo-2,6-dichloro-N-[2-(2-chlorophenyl)ethyl]benzene-1-sulfonamide]	—	—		—	900 nM			—		
Cc1c2c(=O)n(-c3ccccc3Cl)[nH]c2cc(=O)n1Cc1ccccn1 [GKT136901, 2-(2-Chlorophenyl)-4-methyl-5-(pyridin-2-ylmethyl)-1H-pyrazolo[4,3-c]pyridine-3,6-dione, reference compound]					1600 nM			active	500 nM	9000 nM
CC(=O)c1ccc2c(c1)Nc1ccccc1S2 [ML171]						failed to reduce human islet cell death	failed to reduce human islet cell death			
Cc1cc(C)c(S(=O)(=O)NCCc2ccccc2C)c(C)c1 [Example 14, 2,4,6-trimethyl-N-[2-(2-methylphenyl)ethyl]benzene-1-sulfonamide]	—	—	—	—	90 nM			—		
Cc1cc(C)c(S(=O)(=O)NCCc2ccccc2F)c(C)c1 [Example 2, N-[2-(2-fluorophenyl)ethyl]-2,4,6-trimethylbenzene-1-sulfonamide]	—	—	—	—	2200 nM			—		
Cc1c(C)c(S(=O)(=O)NCCc2ccccc2Cl)c(C)c2c1OC(C)(C)C2 [Example 9, N-[2-(2-chlorophenyl)ethyl]-2,2,4,6,7-pentamethyl-2,3-dihydro-1-benzofuran-5-sulfonamide]	—	—	—	—	1600 nM			—		
Cc1ccccc1C(F)CNS(=O)(=O)c1c(Cl)cc(Br)cc1Cl (single isomer, unassigned) [Example 35 (isomer 1), 4-bromo-2,6-dichloro-N-[2-fluoro-2-(2-methylphenyl)ethyl]benzene-1-sulfonamide]	—	—	—	—	1700 nM			—		

From US12202790B2, “Sulfonamide derivatives having selective Nox inhibiting activity” (GLUCOX BIOTECH AB, priority 2018, dated 2025)
